Experimental data reported in US20220080056A1, “DENDRIMER COMPOSITIONS AND USE IN TREATMENT OF NECROTIZING ENTEROCOLITIS AND OTHER GASTROINTESTINAL DISORDERS” (The Johns Hopkins University, priority 2015, published 2022).

Tests used:
TLR4 co-receptor MD-2 = target: T1, TLR4 co-receptor MD-2 (Homo sapiens, UniProt Q9Y6Y9); details: cited from earlier work
T1 sequence (Q9Y6Y9 19-160): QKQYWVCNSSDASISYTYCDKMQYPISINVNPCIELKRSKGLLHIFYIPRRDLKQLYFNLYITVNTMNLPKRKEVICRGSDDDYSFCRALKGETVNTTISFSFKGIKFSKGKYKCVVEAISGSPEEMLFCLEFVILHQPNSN

systemic inflammation = details: mouse models of endotoxemia and necrotizing enterocolitis; cited from earlier work
TLR4 = details: enterocytes and macrophages in vitro; cited from earlier work
LPS signaling = details: human ileum resected from infants with NEC; cited from earlier work
[1] = tested on: TLR4-mediated inflammatory signaling; details: SAR study of C34 analogs; cited from earlier work
microglial cells = assay: GSH depletion, ROS, H2O2 and NO/nitrite production; format: cell-based; details: highest concentration (5 mM)
Description: (§1) Treatment with G4-PAMAM-S--S-NAC dendrimer complexes reduced white matter injury and microglia activation. […] This activity of the dendrimer-NAC conjugates may be attributed to its ability to interfere with the early inflammatory responses by blocking or modifying the signal transduction factor NF-.kappa.B and nitrotyrosine, thereby modulating cellular activation. 6 and 8 arm PEG-NAC conjugates released 74% of NAC in the intracellular GSH concentration (2 and 10 mM), within 2 hours. At a concentration range of between 0.008-0.8 mM, the conjugates were nontoxic to the microglial cells. […] At the highest concentration (5 mM), the free drug reduced the H2O2 levels and nitrite levels by 30-40%, whereas the conjugates reduced the H2O2 and nitrite levels by more than 70%. […] PEGylated NAC is a dendrimer complex with utility for the pharmaceutical industry, as PEGs are approved for human use and this device addresses limitations of NAC and provides greater efficacy.

LPS-induced brain injury = LPS-induced brain injury in a neonatal rabbit model of cerebral palsy; format: in vivo
Description: The therapeutic efficacy of G4-PAMAM-S--S-NAC dendrimer conjugate was evaluated after two days of animal treatment with lipopolysaccharide (LPS) to induce white matter injury and hypomyelination in the developing rabbit brain (an animal model of Cerebral Palsy). […] This supports a conclusion that the G4-PAMAM-S--S-NAC traversed across the BBB. The targeted delivery of NAC from dendrimer complex to actived microglial cells improved the motor deficits and attenuated recovery from the LPS-induced brain injury in a neonatal rabbit model of cerebral palsy.
as §1

[2] = free drug; cited from earlier work
[3] = compared to kits treated with saline

In the case of CC(=O)N[C@H]1[C@@H](OC(C)C)O[C@H](COC(C)=O)[C@@H](OC(C)=O)[C@@H]1OC(C)=O [C34], the “docking fit to hydrophobic internal pocket of MD-2” value (TLR4 co-receptor MD-2) is given as “tight fit”, the systemic inflammation (systemic inflammation) is given as “reduces” and the TLR4 inhibition (TLR4) is given as “inhibits”. For the same molecule, the LPS signaling ex-vivo (LPS signaling) was “inhibited”.

For CC(=O)N[C@H]1[C@@H](OC(C)C)O[C@H](CO)[C@H](O)[C@@H]1O [compound 17, isopropyl 2-acetamido-α-galactoside], the “efficacy relative to C34 series” value [1] is listed as “more efficacious”.

With CC(=O)N[C@@H](CS)C(=O)O [NAC, N-acetyl cysteine] the “reduction of H2O2 levels” value (microglial cells) was 30-40%, the “reduction of nitrite levels” value (microglial cells) was 30-40% and the “dose eliciting identical responses” value (LPS-induced brain injury; LPS-induced brain injury) was 100 mg/kg. The fetal inflammation response (LPS-induced brain injury; [3]) was “decrease”, the motor deficits (LPS-induced brain injury; [3]) was “improvement” and the bioavailability [2] was “low”. For the same molecule, the plasma protein binding [2] was “very high”.
